Patent publication US11339130B1 (Blade Therapeutics, Inc., priority 2016, dated 2022)
Where a name gives a salt, the structure may show the parent alone.

Columns and labels:
Type in all cases: biochemical
Human Calpain 2/NS1 = biological target: T1, Human Calpain 2/NS1 (Homo sapiens, UniProt P17655); experiment: Calpain inhibition continuous fluorescence (FRET) assay, Human Calpain 2/NS1; conditions: read-out: Human Calpain 2/NS1 IC50
T1 sequence (P17655 1-700): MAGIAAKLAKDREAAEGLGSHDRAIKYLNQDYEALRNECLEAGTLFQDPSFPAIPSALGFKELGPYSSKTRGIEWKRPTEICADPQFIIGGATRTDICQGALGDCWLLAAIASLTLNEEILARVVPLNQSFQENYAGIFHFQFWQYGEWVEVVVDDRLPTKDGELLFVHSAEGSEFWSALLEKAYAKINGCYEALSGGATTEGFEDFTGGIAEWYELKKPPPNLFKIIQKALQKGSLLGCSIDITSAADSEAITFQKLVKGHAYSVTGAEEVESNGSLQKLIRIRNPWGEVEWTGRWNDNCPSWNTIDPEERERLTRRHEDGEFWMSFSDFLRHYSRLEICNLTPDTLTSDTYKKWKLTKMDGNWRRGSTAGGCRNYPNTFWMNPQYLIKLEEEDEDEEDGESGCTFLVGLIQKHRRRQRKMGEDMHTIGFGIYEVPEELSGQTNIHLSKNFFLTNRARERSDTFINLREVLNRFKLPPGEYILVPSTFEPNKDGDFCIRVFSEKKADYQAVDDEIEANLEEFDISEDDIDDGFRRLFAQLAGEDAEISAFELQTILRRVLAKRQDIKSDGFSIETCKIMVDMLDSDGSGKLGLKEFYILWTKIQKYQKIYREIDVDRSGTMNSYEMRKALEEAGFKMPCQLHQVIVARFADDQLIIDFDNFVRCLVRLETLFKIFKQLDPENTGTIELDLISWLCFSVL
T1 sequence (P04632 1-268 partner): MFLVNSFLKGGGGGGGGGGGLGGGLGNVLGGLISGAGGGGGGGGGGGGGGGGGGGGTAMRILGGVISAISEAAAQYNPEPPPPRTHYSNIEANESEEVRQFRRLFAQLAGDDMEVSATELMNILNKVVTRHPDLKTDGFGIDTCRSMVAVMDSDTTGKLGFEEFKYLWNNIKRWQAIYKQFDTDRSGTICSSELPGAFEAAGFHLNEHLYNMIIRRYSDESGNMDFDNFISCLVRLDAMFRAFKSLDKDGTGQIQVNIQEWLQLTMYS
In short: (§1)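 Continuous FRET read (ex 490/em 520 nm, 10 min) of calpain 1, 2 or 9 cleaving an internally quenched 5-FAM peptide, triggered by substrate with CaCl2 after enzyme–inhibitor incubation at ambient 25 °C, pH 7.5 Tris/NaCl/DTT buffer. IC50 from initial rates (1-5 min) via 4-parameter fit.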

Human Calpain 1/NS1 = biological target: T2, Human Calpain 1/NS1 (Homo sapiens, UniProt P07384); experiment: Calpain inhibition continuous fluorescence (FRET) assay, Human Calpain 1/NS1; conditions: read-out: Human Calpain 1/NS1 IC50
T2 sequence (P07384 1-714): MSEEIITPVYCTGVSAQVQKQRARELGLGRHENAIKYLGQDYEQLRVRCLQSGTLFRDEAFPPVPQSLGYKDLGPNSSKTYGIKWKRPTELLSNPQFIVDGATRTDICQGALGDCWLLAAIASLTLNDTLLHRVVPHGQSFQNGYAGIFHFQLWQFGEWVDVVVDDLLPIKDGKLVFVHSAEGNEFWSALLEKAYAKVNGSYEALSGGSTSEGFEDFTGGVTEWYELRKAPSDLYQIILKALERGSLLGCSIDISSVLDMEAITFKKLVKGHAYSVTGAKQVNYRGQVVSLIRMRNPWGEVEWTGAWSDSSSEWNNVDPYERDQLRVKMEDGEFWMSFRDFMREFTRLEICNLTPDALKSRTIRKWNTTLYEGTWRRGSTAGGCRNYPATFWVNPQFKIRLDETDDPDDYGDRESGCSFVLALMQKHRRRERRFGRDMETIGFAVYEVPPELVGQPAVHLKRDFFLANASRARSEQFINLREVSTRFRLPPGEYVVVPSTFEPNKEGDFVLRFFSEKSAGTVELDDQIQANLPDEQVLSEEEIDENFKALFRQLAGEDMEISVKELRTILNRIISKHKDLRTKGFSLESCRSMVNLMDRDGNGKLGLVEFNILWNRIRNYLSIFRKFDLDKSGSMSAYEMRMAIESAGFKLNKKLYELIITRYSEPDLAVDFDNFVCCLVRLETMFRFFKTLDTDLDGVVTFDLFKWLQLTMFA
T2 sequence (P04632 1-268 partner): T1 sequence (P04632 1-268 partner)
In short: as §1

Human Calpain 9/NS1 = biological target: T3, Human Calpain 9/NS1 (Homo sapiens, UniProt O14815); experiment: Calpain inhibition continuous fluorescence (FRET) assay, Human Calpain 9/NS1; conditions: read-out: Human Calpain 9/NS1 IC50
T3 sequence (O14815 1-690): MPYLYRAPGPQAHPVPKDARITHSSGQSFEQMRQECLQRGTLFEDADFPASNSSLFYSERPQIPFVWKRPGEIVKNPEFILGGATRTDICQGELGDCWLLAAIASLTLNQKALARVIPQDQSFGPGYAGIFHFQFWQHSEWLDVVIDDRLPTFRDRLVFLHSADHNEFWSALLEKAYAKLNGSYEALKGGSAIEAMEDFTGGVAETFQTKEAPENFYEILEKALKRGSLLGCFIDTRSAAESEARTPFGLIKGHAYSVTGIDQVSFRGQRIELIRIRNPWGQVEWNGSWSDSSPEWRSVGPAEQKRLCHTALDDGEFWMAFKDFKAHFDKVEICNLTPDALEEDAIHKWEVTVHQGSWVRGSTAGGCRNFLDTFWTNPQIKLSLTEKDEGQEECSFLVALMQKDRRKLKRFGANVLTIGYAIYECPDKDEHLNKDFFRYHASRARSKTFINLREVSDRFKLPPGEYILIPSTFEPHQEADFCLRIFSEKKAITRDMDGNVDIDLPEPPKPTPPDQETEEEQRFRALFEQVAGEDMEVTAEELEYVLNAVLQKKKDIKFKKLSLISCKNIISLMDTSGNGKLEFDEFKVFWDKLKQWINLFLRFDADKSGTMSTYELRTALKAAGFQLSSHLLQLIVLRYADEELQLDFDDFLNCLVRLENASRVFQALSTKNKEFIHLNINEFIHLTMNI
T3 sequence (P04632 1-268 partner): T1 sequence (P04632 1-268 partner)
In short: as §1

SMILES | IC50 (Human Calpain 2/NS1) | IC50 (Human Calpain 1/NS1) | IC50 (Human Calpain 9/NS1)
Cn1cc(C(=O)NC(Cc2ccccc2)C(=O)C(N)=O)c(-c2n[nH]c3ccccc23)n1 (stereo not drawn) [Compound 482, N-(4-amino-3,4-dioxo-1-phenylbutan-2-yl)-3-(1H-indazol-3-yl)-1-methyl-1H-pyrazole-4-carboxamide] | 3 to 10 µM | 3 to 10 µM | < 3 µM
COc1cccc(-c2nn(C)cc2C(=O)NC(Cc2ccccc2)C(=O)C(N)=O)n1 (stereo not drawn) [Compound 487, N-(4-amino-3,4-dioxo-1-phenylbutan-2-yl)-3-(6-methoxypyridin-2-yl)-1-methyl-1H-pyrazole-4-carboxamide] | < 3 µM | 3 to 10 µM | < 3 µM
Cn1ncc(C(=O)NC(Cc2ccccc2)C(=O)C(N)=O)c1Cc1ccccc1 (stereo not drawn) [Compound 488, N-(4-amino-3,4-dioxo-1-phenylbutan-2-yl)-5-benzyl-1-methyl-1H-pyrazole-4-carboxamide] | 3 to 10 µM | 3 to 10 µM | 3 to 10 µM
Cc1cnc(C(=O)NC(Cc2ccccc2)C(=O)C(N)=O)n1-c1ccccc1 (stereo not drawn) [Compound 490, N-(4-amino-3,4-dioxo-1-phenylbutan-2-yl)-5-methyl-1-phenyl-1H-imidazole-2-carboxamide] | 3 to 10 µM | > 10 µM | < 3 µM
NC(=O)C(=O)C(Cc1ccccc1)NC(=O)c1cnoc1Cc1ccccc1 (stereo not drawn) [Compound 491, N-(4-amino-3,4-dioxo-1-phenylbutan-2-yl)-5-benzylisoxazole-4-carboxamide] | < 3 µM | < 3 µM | 3 to 10 µM
Cn1cc(C(=O)NC(Cc2ccccc2)C(=O)C(N)=O)c(N2CCS(=O)(=O)CC2)n1 (stereo not drawn) [Compound 613, N-(4-amino-3,4-dioxo-1-phenylbutan-2-yl)-3-(1,1-dioxidothiomorpholino)-1-methyl-1H-pyrazole-4-carboxamide] | 3 to 10 µM | 3 to 10 µM | < 3 µM
Cn1cc(C(=O)NC(Cc2ccccc2)C(=O)C(N)=O)c(N2CCOCC2)n1 (stereo not drawn) [Compound 614, N-(4-amino-3,4-dioxo-1-phenylbutan-2-yl)-1-methyl-3-morpholino-1H-pyrazole-4-carboxamide] | 3 to 10 µM | 3 to 10 µM | 3 to 10 µM
Cn1cc(C(=O)NC(Cc2ccccc2)C(=O)C(N)=O)c(-c2cccs2)n1 (stereo not drawn) [Compound 615, N-(4-amino-3,4-dioxo-1-phenylbutan-2-yl)-1-methyl-3-(thiophen-2-yl)-1H-pyrazole-4-carboxamide] | < 3 µM | < 3 µM | < 3 µM
Cn1cc(C(=O)NC(Cc2ccccc2)C(=O)C(N)=O)c(C2CC2)n1 (stereo not drawn) [Compound 616, N-(4-amino-3,4-dioxo-1-phenylbutan-2-yl)-3-cyclopropyl-1-methyl-1H-pyrazole-4-carboxamide] | < 3 µM | 3 to 10 µM | 3 to 10 µM

Second part, the compound after the results:

IC50 (Human Calpain 2/NS1) | IC50 (Human Calpain 1/NS1) | IC50 (Human Calpain 9/NS1) | SMILES
< 3 µM | 3 to 10 µM | < 3 µM | Cn1cc(C(=O)NC(Cc2ccccc2)C(=O)C(N)=O)c(C2CCOCC2)n1 (stereo not drawn) [Compound 617, N-(4-amino-3,4-dioxo-1-phenylbutan-2-yl)-1-methyl-3-(tetrahydro-2H-pyran-4-yl)-1H-pyrazole-4-carboxamide]
< 3 µM | < 3 µM | < 3 µM | Cc1nc(-c2cccc3c2OC(F)(F)O3)c(C(=O)NC(Cc2ccccc2)C(=O)C(N)=O)o1 (stereo not drawn) [Compound 618, N-(4-amino-3,4-dioxo-1-phenylbutan-2-yl)-4-(2,2-difluorobenzo[d][1,3]dioxol-4-yl)-2-methyloxazole-5-carboxamide]
< 3 µM | < 3 µM | < 3 µM | COc1ccc(F)c(-c2oncc2C(=O)NC(Cc2ccccc2)C(=O)C(N)=O)c1 (stereo not drawn) [Compound 619, N-(4-amino-3,4-dioxo-1-phenylbutan-2-yl)-5-(2-fluoro-5-methoxyphenyl)isoxazole-4-carboxamide]
< 3 µM | < 3 µM | 3 to 10 µM | Cn1cc(C(=O)NC(Cc2ccccc2)C(=O)C(N)=O)c(C2CCCC2)n1 (stereo not drawn) [Compound 620, N-(4-amino-3,4-dioxo-1-phenylbutan-2-yl)-3-cyclopentyl-1-methyl-1H-pyrazole-4-carboxamide]
< 3 µM | < 3 µM | < 3 µM | Cn1cc(C(=O)NC(Cc2ccccc2)C(=O)C(N)=O)c(-c2ccc(Cl)s2)n1 (stereo not drawn) [Compound 621, N-(4-amino-3,4-dioxo-1-phenylbutan-2-yl)-3-(5-chlorothiophen-2-yl)-1-methyl-1H-pyrazole-4-carboxamide]
< 3 µM | < 3 µM | < 3 µM | NC(=O)C(=O)C(Cc1ccccc1)NC(=O)c1cn(C(F)F)nc1-c1ccc2ncccc2c1 (stereo not drawn) [Compound 622, N-(4-amino-3,4-dioxo-1-phenylbutan-2-yl)-1-(difluoromethyl)-3-(quinolin-6-yl)-1H-pyrazole-4-carboxamide hydrochloride]
< 3 µM | < 3 µM | < 3 µM | Cn1cc(C(=O)NC(Cc2cccc(C(F)(F)F)c2)C(=O)C(N)=O)c(-c2ccccc2F)n1 (stereo not drawn) [Compound 623, N-(4-amino-3,4-dioxo-1-(3-(trifluoromethyl)phenyl)butan-2-yl)-3-(2-fluorophenyl)-1-methy 1-1H-pyrazole-4-carboxamide]
< 3 µM | < 3 µM | < 3 µM | Cn1cc(C(=O)NC(Cc2ccccc2)C(=O)C(N)=O)c(C2CCCN(C(=O)OC(C)(C)C)C2)n1 (stereo not drawn) [Compound 624, Tert-Butyl 3-(4-((4-amino-3,4-dioxo-1-phenylbutan-2-yl)carbamoyl)-1-methyl-1H-pyrazol-3-yl)piperidine-1-carboxylate]
< 3 µM | < 3 µM | < 3 µM | Cn1cc(C(=O)NC(Cc2ccccc2)C(=O)C(N)=O)c(-c2ccc3c(c2)OCCCO3)n1 (stereo not drawn) [Compound 625, N-(4-amino-3,4-dioxo-1-phenylbutan-2-yl)-3-(3,4-dihydro-2H-benzo[b][1,4]dioxepin-7-yl)-1-methyl-1H-pyrazole-4-carboxamide]
